target: c-MET (Homo sapiens, UniProt P08581); test: Ki determination for the inhibition of c-MET (standard radiometric 33P-ATP kinase assay, polyE4Y substrate); type: biochemical; details: 1.0 nM c-Met, 35 μM ATP, 0.5 mg/mL polyE4Y, 20 min; competitive tight-binding fit
Method in brief: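 Radiometric assay of 33P transfer from 33P-ATP (35 μM) to polyE4Y (0.5 mg/mL) by 1.0 nM c-Met in 100 mM HEPES pH 7.5, 10 mM MgCl2, 25 mM NaCl, 0.01% BSA, 1 mM DTT. TCA-quenched after 20 min, filter-captured, scintillation-counted; Ki fitted to a competitive tight-binding model.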

c-MET, sequence (P08581 25-1390): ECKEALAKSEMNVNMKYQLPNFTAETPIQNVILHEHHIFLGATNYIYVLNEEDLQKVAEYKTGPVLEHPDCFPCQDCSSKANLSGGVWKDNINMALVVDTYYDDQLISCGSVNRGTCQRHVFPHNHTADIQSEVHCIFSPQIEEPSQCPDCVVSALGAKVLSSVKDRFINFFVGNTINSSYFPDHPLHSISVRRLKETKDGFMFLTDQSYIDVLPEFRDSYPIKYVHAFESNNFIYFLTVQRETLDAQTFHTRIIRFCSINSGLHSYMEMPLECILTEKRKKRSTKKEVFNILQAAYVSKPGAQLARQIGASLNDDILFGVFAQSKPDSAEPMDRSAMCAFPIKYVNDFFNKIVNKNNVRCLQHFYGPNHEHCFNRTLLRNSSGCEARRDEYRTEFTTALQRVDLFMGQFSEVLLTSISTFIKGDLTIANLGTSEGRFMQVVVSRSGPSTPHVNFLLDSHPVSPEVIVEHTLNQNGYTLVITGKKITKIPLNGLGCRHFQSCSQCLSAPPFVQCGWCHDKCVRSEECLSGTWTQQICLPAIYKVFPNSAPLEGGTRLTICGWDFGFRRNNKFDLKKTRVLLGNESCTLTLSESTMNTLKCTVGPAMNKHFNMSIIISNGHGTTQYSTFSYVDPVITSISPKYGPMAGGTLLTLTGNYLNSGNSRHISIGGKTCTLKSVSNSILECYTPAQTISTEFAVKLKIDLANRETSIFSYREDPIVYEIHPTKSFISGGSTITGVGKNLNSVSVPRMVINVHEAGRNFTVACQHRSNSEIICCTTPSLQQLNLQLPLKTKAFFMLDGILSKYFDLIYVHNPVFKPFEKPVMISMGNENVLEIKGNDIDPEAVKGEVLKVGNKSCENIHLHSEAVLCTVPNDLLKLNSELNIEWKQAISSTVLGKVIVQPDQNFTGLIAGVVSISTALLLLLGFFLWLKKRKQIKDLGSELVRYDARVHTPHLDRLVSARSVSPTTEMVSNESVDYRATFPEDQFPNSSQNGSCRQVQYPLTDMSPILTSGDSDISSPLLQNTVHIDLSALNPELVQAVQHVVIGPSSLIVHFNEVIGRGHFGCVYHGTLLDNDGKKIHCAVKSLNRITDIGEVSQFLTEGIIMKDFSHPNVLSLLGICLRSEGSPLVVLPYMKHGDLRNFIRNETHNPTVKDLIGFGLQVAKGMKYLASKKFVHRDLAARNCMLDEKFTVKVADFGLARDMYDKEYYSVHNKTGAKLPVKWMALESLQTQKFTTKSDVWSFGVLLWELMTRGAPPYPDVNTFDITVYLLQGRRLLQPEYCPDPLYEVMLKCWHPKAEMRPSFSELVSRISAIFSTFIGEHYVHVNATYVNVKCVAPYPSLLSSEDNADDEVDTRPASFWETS

Row | Ki [nM] | SMILES
1 | 100 to 1000 | CC(=O)N1CCC[C@@H]1C(=O)N1CC=C(c2cnc(N)c(-c3nnnn3-c3cccc(F)c3F)c2)CC1 [I-A-649]
2 | ≤ 100 | Nc1nc2cc(F)c(-c3cnc(N)c(-c4nnnn4-c4cccc(F)c4F)n3)cc2[nH]1 [I-A-52]
3 | 100 to 1000 | COCCN(CCOC)Cc1ccc(-c2cnc(N)c(-c3nnnn3-c3cccc(Cl)c3Cl)c2)cc1 [I-A-101]
4 | 100 to 1000 | CN(C)Cc1ccc(-c2cnc(N)c(-c3nn(CCO)cc3-c3cccc(Cl)c3Cl)c2)cc1 [I-B-14]
5 | ≤ 100 | Nc1ncc(-c2cnn(C3CCN(CCF)CC3)c2)cc1-c1nnnn1-c1cccc(F)c1F [I-A-452]
6 | ≤ 100 | CCOC(=O)Cn1cc(-c2cnc(N)c(-c3nnnn3-c3cccc(F)c3F)c2)cn1 [I-A-345]
7 | 100 to 1000 | CC(=O)Nc1cccc(-c2cnc(N)c(-n3nnnc3-c3cccc(F)c3F)c2)c1 [I-E-5]
8 | ≤ 100 | Nc1ncc(-c2ccc(CO)cc2)cc1-c1nnnn1-c1cccc(Cl)c1Cl [I-A-90]
9 | 100 to 1000 | Nc1ncc(-c2cccnc2)cc1-c1nncn1-c1cccc(F)c1F [I-A-39]
10 | ≤ 100 | CN1CCN(c2ccc(-c3cnc(N)c(-c4nnnn4-c4cccc(F)c4F)c3)cc2)CC1 [I-A-19]
11 | 100 to 1000 | Cc1ccc(Cl)cc1-n1nnnc1-c1cc(-c2ccc(CN3CCCC3)cc2)cnc1N [I-A-600]
12 | ≤ 100 | CCN1CCC(n2cc(-c3cnc(N)c(-c4nnnn4-c4cccc(F)c4F)c3)cn2)CC1 [I-A-435]
13 | ≤ 100 | Nc1ncc(-c2csc(C3CCNCC3)c2)cc1-c1nnnn1-c1cccc(F)c1F [I-A-463]
14 | ≤ 100 | CC(C)C(=O)Nc1ccc(-c2cnc(N)c(-c3nnnn3-c3cccc(F)c3F)c2)cc1 [I-A-193]
15 | 100 to 1000 | Nc1ncc(-c2ccc(CN3CCCC3)cc2)cc1-c1nnnn1-c1cccc(Cl)c1 [I-A-356]
16 | ≤ 100 | NCN1CCN(Cc2ccc(-c3cnc(N)c(-c4nnnn4-c4cccc(Cl)c4Cl)c3)cc2)CC1 [I-A-108]
17 | 100 to 1000 | Nc1ncc(-c2nc3c(s2)CNCC3)nc1-c1nnnn1-c1cccc(F)c1F [I-A-537]
18 | ≤ 100 | CC(=O)Nc1ccc(-c2cnc(N)c(-c3nnnn3-c3cccc(F)c3F)c2)cc1F [I-A-127]
19 | ≤ 100 | Nc1ncc(-c2cccc(NC(=O)Nc3cccnc3)c2)cc1-c1nnnn1-c1cccc(F)c1F [I-A-272]
20 | 100 to 1000 | Nc1ncc(-c2nccs2)cc1-c1nnnn1-c1cccc(F)c1F [I-A-539]
21 | ≤ 100 | Nc1ncc(-c2ccc(CC3(O)CCNCC3)cc2)cc1-c1nnnn1-c1cccc(F)c1F [I-A-157]

Row | Ki [nM] | SMILES
22 | 100 to 1000 | CC(=O)Nc1cccc(-c2cnc(N)c(-c3nnnn3-c3cc(F)cc(F)c3Cl)c2)c1 [I-A-570]
23 | 100 to 1000 | Nc1ncc(-c2ccncc2)cc1-c1nncn1-c1cccc(Cl)c1Cl [I-A-71]
24 | ≤ 100 | CN(C)Cc1ccc(-c2cnc(N)c(-c3nnnn3-c3cccc(Cl)c3Cl)c2)cc1 [I-A-79]
25 | 100 to 1000 | Nc1ncc(-c2ccc(C3CCNCC3)cc2)cc1-n1nnnc1-c1cccc(F)c1F [I-E-3]
26 | ≤ 100 | CCN1CCC(n2cc(-c3cnc(N)c(-c4nncn4-c4cccc(Cl)c4F)c3)cn2)CC1 [I-A-458]
27 | ≤ 100 | Nc1ncc(-c2cnn([C@@H]3CCNC3)c2)cc1-c1nnnn1-c1cccc(Cl)c1Cl [I-A-408]
28 | ≤ 100 | CN1CCC(n2cc(-c3cnc(N)c(-c4nnnn4-c4cccc(Cl)c4F)c3)cn2)CC1 [I-A-436]
29 | ≤ 100 | CC(c1ccc(-c2cnc(N)c(-c3nnnn3-c3cccc(Cl)c3Cl)c2)cc1)N(C)C (centres unmarked) [I-A-100]
30 | ≤ 100 | CC(=O)Nc1cc(-c2cnc(N)c(-c3nnnn3-c3cccc(F)c3F)c2)ccc1CN1CCCC1 [I-A-339]
31 | 100 to 1000 | Nc1ncc(-c2ccncc2)nc1-c1nnc(O)n1-c1cccc(F)c1F [I-A-15]
32 | ≤ 100 | Nc1ncc(-c2cnn(C3CCOCC3)c2)cc1-c1nnnn1-c1cccc(F)c1F [I-A-396]
33 | ≤ 100 | Nc1ncc(-c2ccc(N3CC(CO)OC3=O)cc2)cc1-c1nnnn1-c1cccc(F)c1F (centres unmarked) [I-A-372]
34 | ≤ 100 | Nc1ncc(-c2cnn(C3CCNCC3)c2)nc1-c1nnnn1-c1cccc(F)c1F [I-A-468]
35 | 100 to 1000 | CN1CCN(Cc2ccc(-c3cnc(N)c(-c4nnc(O)n4-c4cccc(F)c4F)c3)cc2)CC1 [I-A-42]
36 | ≤ 100 | CC(=O)Nc1ccc(-c2cnc(N)c(-c3nnnn3-c3cccc(F)c3F)c2)cc1 [I-A-138]
37 | 100 to 1000 | Nc1ncc(-c2cc(F)cc(F)c2)cc1-c1nnnn1-c1cccc(F)c1F [I-A-288]
38 | 100 to 1000 | COc1c(F)cccc1-n1nnnc1-c1cc(-c2cccc(NC(C)=O)c2)cnc1N [I-A-562]
39 | ≤ 100 | COCCN1CCC(n2cc(-c3cnc(N)c(-c4nncn4-c4cccc(F)c4F)c3)cn2)CC1 [I-A-476]
40 | 100 to 1000 | CCOc1cccc(-c2cnc(N)c(-c3nncn3-c3cccc(F)c3F)n2)c1 [I-A-31]
41 | ≤ 100 | CN(C)CCNC(=O)c1ccc(-c2cnc(N)c(-c3nnnn3-c3cccc(F)c3F)c2)cc1 [I-A-135]
42 | ≤ 100 | Nc1ncc(-c2ccc(C(=O)NC3CC3)cc2)cc1-c1nnnn1-c1cccc(F)c1F [I-A-137]

Row | Ki [nM] | SMILES
43 | ≤ 100 | CC(C)CC(=O)N1CC=C(c2cnc(N)c(-c3nnnn3-c3cccc(F)c3F)c2)CC1 [I-A-513]
44 | 100 to 1000 | CC(=O)Nc1ccc(-c2cnc(N)c(-c3nnnn3-c3c(F)cccc3Cl)c2)cc1 [I-A-639]
45 | 100 to 1000 | N#Cc1ccc(-c2cnc(N)c(-c3nnnn3-c3cccc(Cl)c3Cl)c2)cc1 [I-A-89]
46 | ≤ 100 | Nc1ncc(-c2cncs2)cc1-c1nnnn1-c1cccc(F)c1F [I-A-540]
47 | 100 to 1000 | COC(=O)[C@H](CC(C)C)NC(=O)Nc1ccc(-c2cnc(N)c(-c3nnnn3-c3cccc(F)c3F)c2)cc1 [I-A-330]
48 | ≤ 100 | COc1cc(O)ccc1-c1cnc(N)c(-c2nnnn2-c2cccc(F)c2F)c1 [I-A-220]
49 | ≤ 100 | Nc1ncc(C2=CCN(C(=O)C[C@@H]3CCCN3)CC2)cc1-c1nnnn1-c1cccc(F)c1F [I-A-505]
50 | 100 to 1000 | Cn1cncc1-c1cnc(N)c(-c2nnnn2-c2cccc(F)c2F)c1 [I-A-496]
51 | ≤ 100 | Nc1ncc(-c2ccc(C3CCNCC3)s2)cc1-c1nnnn1-c1cccc(F)c1F [I-A-415]
52 | 100 to 1000 | COc1ccc(-c2cnc(N)c(-c3nncn3-c3cccc(Cl)c3Cl)c2)cc1 [I-A-69]
53 | 100 to 1000 | Cn1cc(-c2cccc(Cl)c2Cl)c(-c2cc(-c3cccnc3)cnc2N)n1 [I-B-16]
54 | 100 to 1000 | CC(=O)N1CCC[C@H]1C(=O)N1CC=C(c2cnc(N)c(-c3nnnn3-c3cccc(F)c3F)c2)CC1 [I-A-641]
55 | ≤ 100 | CN(C)C1CCN(Cc2ccc(-c3cnc(N)c(-c4nnnn4-c4cccc(F)c4F)c3)cc2)C1 (centres unmarked) [I-A-147]
56 | ≤ 100 | CN1CCC[C@H]1C(=O)N1CC=C(c2cnc(N)c(-c3nnnn3-c3cccc(F)c3F)c2)CC1 [I-A-503]
57 | ≤ 100 | C[C@@H](c1ccc(-c2cnc(N)c(-c3nnnn3-c3cccc(F)c3F)c2)cc1)N1CCCC1 [I-A-211]
58 | ≤ 100 | Nc1ncc(-c2cn[nH]c2)cc1-c1nnnn1-c1cccc(F)c1F [I-A-366]
59 | ≤ 100 | Nc1ncc(-c2ccsc2)cc1-c1nnnn1-c1cccc(F)c1F [I-A-143]
60 | ≤ 100 | Nc1ncc(-c2cnn([C@@H]3CCNC3)c2)cc1-c1nnnn1-c1cccc(F)c1F [I-A-404]
61 | 100 to 1000 | COC(=O)[C@H](CC(C)C)NC(=O)Nc1cccc(-c2cnc(N)c(-c3nnnn3-c3cccc(F)c3F)c2)c1 [I-A-326]
62 | 100 to 1000 | Nc1ncc(-c2ccncc2)cc1-c1nnnn1-c1cccc(Cl)c1Cl [I-A-84]

— patent publication US8232406B2, “c-MET protein kinase inhibitors” (Vertex Pharmaceuticals Incorporated, priority 2006, dated 2012)
